From patent publication US11802120B2, “Fused cyclic urea derivatives as CRHR2 antagonist” (RaQualia Pharma Inc., priority 2018, dated 2023)

Biological target: T1, human CRHR2-alpha (Homo sapiens, UniProt Q13324)
T1 sequence (Q13324 1-411): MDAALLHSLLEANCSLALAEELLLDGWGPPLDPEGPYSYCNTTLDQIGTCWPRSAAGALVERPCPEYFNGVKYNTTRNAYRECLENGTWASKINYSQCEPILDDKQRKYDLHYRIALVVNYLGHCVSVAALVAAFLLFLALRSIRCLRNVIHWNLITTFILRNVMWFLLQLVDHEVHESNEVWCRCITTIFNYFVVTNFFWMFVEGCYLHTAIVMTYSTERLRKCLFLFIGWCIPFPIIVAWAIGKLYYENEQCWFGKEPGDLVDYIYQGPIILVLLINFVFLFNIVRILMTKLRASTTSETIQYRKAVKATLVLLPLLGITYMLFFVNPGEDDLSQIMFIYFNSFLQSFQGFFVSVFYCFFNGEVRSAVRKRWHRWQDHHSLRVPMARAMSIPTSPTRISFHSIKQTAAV
Assay: cAMP functional assay for human CRHR2 (LANCE Ultra cAMP, TR-FRET)
Type: cell-based
Conditions: CHO-K1 cells expressing human CRHR2-alpha, agonist human urocortin2 at EC80, cAMP; read-out: IC50 against CRHR2
Outline: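 Antagonism measured in CHO-K1 cells stably expressing the receptor, serum-starved 7 h then cryopreserved. Thawed cells in HBSS buffer with 0.1% BSA, 0.5 mM IBMX, 5 mM Hepes pH 7.4 were preincubated with compound 30 min at 25° C, then stimulated 30 min with EC80 agonist: urocortin2 for CRHR2, CRF for CRHR1.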

| SMILES | IC50 |
| --- | --- |
| CC(=O)c1ccc(-n2c(=O)n(C[C@H]3CC[C@H](NC(=O)c4cc(Cl)cnc4C(F)F)CC3)c3cccnc32)cc1 [Example 400, N-((1r,4r)-4-((3-(4-acetylphenyl)-2-oxo-2,3-dihydro-1H-imidazo [4,5-b]pyridin-1-yl)methyl)cyclo-hexyl)-5-chloro-2-(difluoro-methyl)nicotinamide] | < 300 nM |
| COc1ccc(-n2c(=O)n(C[C@H]3CC[C@H](NC(=O)c4cc(Cl)cnc4C)CC3)c3cccnc32)cc1OC1CCCC1 [Example 401, 5-chloro-N-((1r,4r)-4-((3-(3-(cyclopentyloxy)-4-methoxy-phenyl)-2-oxo-2,3-dihydro-1H-imidazo[4,5-b]pyridin-1-yl)methyl)cyclohexyl)-2-methylnicotinamide] | < 300 nM |
| CCOc1ccc(-n2c(=O)n(C[C@H]3CC[C@H](NC(=O)c4cc(Cl)cnc4C)CC3)c3cccnc32)cc1 [Example 402, 5-chloro-N-((1r,4r)-4-((3-(4-ethoxyphenyl)-2-oxo-2,3-dihydro-1H-imidazo[4,5-b]pyridin-1-yl)methyl)cyclo-hexyl)-2-methylnicotinamide] | < 300 nM |
| Cc1ncc(Cl)cc1C(=O)N[C@H]1CC[C@H](Cn2c(=O)n(-c3ccc4c(c3)cc(C(N)=O)n4C)c3ccccc32)CC1 [Example 403, 5-(3-(((1r,4r)-4-(5-chloro-2-methylnicotinamido)cyclo-hexyl)methyl)-2-oxo-2,3-dihydro-1H-benzo[d]imidazol-1-yl)-1-methyl-1H-indole-2-carboxamide] | < 300 nM |
| CNC(=O)c1cc2cc(-n3c(=O)n(C[C@H]4CC[C@H](NC(=O)c5cc(Cl)cnc5C)CC4)c4ccccc43)ccc2n1C [Example 404, 5-(3-(((1r,4r)-4-(5-chloro-2-methylnicotinamido)cyclo-hexyl)methyl)-2-oxo-2,3-dihydro-1H-benzo[d]imidazol-1-yl)-N,1-dimethyl-1H-indole-2-carboxamide] | < 300 nM |
| Cc1ncc(Cl)cc1C(=O)N[C@H]1CC[C@H](Cn2c(=O)n(-c3ccc4c(c3)cc(C(=O)N(C)C)n4C)c3ccccc32)CC1 [Example 405, 5-(3-(((1r,4r)-4-(5-chloro-2-methylnicotinamido)cyclo-hexyl)methyl)-2-oxo-2,3-dihydro-1H-benzo[d]imidazol-1-yl)-N,N,1-trimethyl-1H-indole-2-carboxamide] | < 300 nM |
| Cn1cnc2ccc(-n3c(=O)n(C[C@H]4CC[C@H](NC(=O)c5cc(Cl)cnc5C(F)F)CC4)c4ccccc43)cc21 [Example 406, 5-chloro-2-(difluoromethyl)-N-((1r,4r)-4-((3′-methyl-2-oxo-3′H-[1,5′-bibenzo[d]imidazol]-3(2H)-yl)methyl)cyclohexyl) nicotinamide] | < 300 nM |
| O=C(N[C@H]1CC[C@H](Cn2c(=O)n(-c3ccc4nccnc4c3)c3ccccc32)CC1)c1cc(Cl)cnc1C(F)(F)F [Example 407, 5-chloro-N-((1r,4r)-4-((2-oxo-3-(quinoxalin-6-yl)-2,3-dihydro-1H-benzo[d]imidazol-1-yl)methyl)cyclohexyl)-2-(trifluoromethyl)nicotinamide] | < 300 nM |
| Cc1ncc(Cl)cc1C(=O)N[C@H]1CC[C@H](Cn2c(=O)n(-c3cnc4[nH]ccc4c3)c3ccccc32)CC1 [Example 408, 5-chloro-2-methyl-N-((1r,4r)-4-((2-oxo-3-(1H-pyrrolo[2,3-b]pyridin-5-yl)-2,3-dihydro-1H-benzo[d]imidazol-1-yl)methyl)cyclohexyl)nicotinamide] | < 300 nM |
| Cc1ncc(Cl)cc1C(=O)N[C@H]1CC[C@H](Cn2c(=O)n(-c3cnc4c(c3)c(C)cn4C)c3ccccc32)CC1 [Example 409, 5-chloro-N-((1r,4r)-4-((3-(1,3-dimethyl-1H-pyrrolo[2,3-b]pyridin-5-yl)-2-oxo-2,3-dihydro-1H-benzo[d]imidazol-1-yl)methyl)cyclohexyl)-2-methylnicotinamide] | < 300 nM |
